In PubChem BioAssay AID328 (DTP/NCI, 2004):
Toxic doses and inconclusive results are not listed.

System: BDF1 mice, P388 leukemia ip, median survival T/C
Experiment: NCI In Vivo Anticancer Drug Screen. Data for tumor model P388 Leukemia (intraperitoneal) in B6D2F1 (BDF1) mice
Conditions: endpoint: median survival time, higher = longer survival
Procedure, shortened: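 Compound-treated tumour-bearing mice were compared with vehicle-treated controls. Survival was recorded, and the value is the treated-group measurement divided by the control-group measurement (T/C).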

[1] = dose: 50.0 mg/kg/injection, schedule: Q01DX009 (ip), vehicle: saline with Tween-80
[2] = dose: 100.0 mg/kg/injection, schedule: Q01DX009 (ip), vehicle: saline with Tween-80
[3] = dose: 100.0 mg/kg/injection, schedule: Q04DX003 (ip), vehicle: saline with Tween-80
[4] = dose: 200.0 mg/kg/injection, schedule: Q01DX009 (ip), vehicle: saline with Tween-80
[5] = dose: 100.0 mg/kg/injection, schedule: Q01DX001 (ip), vehicle: saline with Tween-80
[6] = dose: 200.0 mg/kg/injection, schedule: Q01DX001 (ip), vehicle: saline with Tween-80
[7] = dose: 2.0 mg/kg/injection, schedule: Q01DX009 (ip), vehicle: saline

**Q.** What does the source list for `O=c1cc(O)ccn1CCc1cccs1`?
**A.** T/C (dose: 12.5 mg/kg/injection, schedule: Q01DX009 (ip), vehicle: saline with Tween-80): 109 % of control; T/C (dose: 25.0 mg/kg/injection, schedule: Q01DX009 (ip), vehicle: saline with Tween-80): 109 % of control; T/C [1]: 121 % of control; T/C [2]: 105 % of control; T/C [3]: 114 % of control; T/C [4]: 112 % of control; T/C (dose: 200.0 mg/kg/injection, schedule: Q04DX003 (ip), vehicle: saline with Tween-80): 110 % of control; T/C (dose: 400.0 mg/kg/injection, schedule: Q01DX009 (ip), vehicle: saline with Tween-80): 110 % of control; T/C (dose: 400.0 mg/kg/injection, schedule: Q04DX003 (ip), vehicle: saline with Tween-80): 119 % of control

**Q.** Which results are given for `CCOC(=O)c1cc[nH]c1CC(=O)NCc1ccccc1`?
**A.** T/C [5]: 97 % of control; T/C [6]: 118 % of control; T/C (dose: 400.0 mg/kg/injection, schedule: Q01DX001 (ip), vehicle: saline with Tween-80): 103 % of control

**Q.** `CCCC1CC[N-]CC1.CCCC1CC[N-]CC1.[Cl][Cu][Cl]` was tested. Which T/C [7] did it give?
**A.** 89 % of control

**Q.** And the T/C (dose: 4.0 mg/kg/injection, schedule: Q01DX009 (ip), vehicle: saline)?
**A.** 100 % of control

**Q.** And the T/C (dose: 8.0 mg/kg/injection, schedule: Q01DX009 (ip), vehicle: saline)?
**A.** 100 % of control

**Q.** Which results are given for `O=C1c2ccccc2-c2ncccc21`?
**A.** T/C (dose: 100.0 mg/kg/injection, schedule: Q04DX003 (ip), vehicle: Klucel (hydroxypropylcellulose) (HPC)): 100 % of control; T/C (dose: 200.0 mg/kg/injection, schedule: Q04DX003 (ip), vehicle: Klucel (hydroxypropylcellulose) (HPC)): 95 % of control

**Q.** How did the T/C [1] turn out when `C#CCOCC(CCl)OC(N)=O` (stereo not drawn) was run?
**A.** 110 % of control

**Q.** What about the T/C [2] of the same molecule?
**A.** 114 % of control

**Q.** What about the T/C (dose: 100.0 mg/kg/injection, schedule: Q04DX003 (ip), vehicle: saline) of the same molecule?
**A.** 110 % of control

**Q.** And the T/C [4]?
**A.** 107 % of control

**Q.** And the T/C (dose: 200.0 mg/kg/injection, schedule: Q04DX003 (ip), vehicle: saline)?
**A.** 120 % of control

**Q.** With `CC12CCC(O)CC1CCC1C2CCC2(C)C(C3=CC(=O)OC3)CCC12O` (stereo not drawn) as the molecule, how does the T/C (dose: 2.0 mg/kg/injection, schedule: Q01DX009 (ip), vehicle: Klucel (hydroxypropylcellulose) (HPC)) read?
**A.** 90 % of control

**Q.** And the T/C (dose: 2.0 mg/kg/injection, schedule: Q01DX010 (ip), vehicle: carboxymethylcellulose (CMC))?
**A.** 95 % of control

**Q.** And the T/C (dose: 4.0 mg/kg/injection, schedule: Q01DX009 (ip), vehicle: Klucel (hydroxypropylcellulose) (HPC))?
**A.** 105 % of control

**Q.** And the T/C (dose: 8.0 mg/kg/injection, schedule: Q01DX009 (ip), vehicle: Klucel (hydroxypropylcellulose) (HPC))?
**A.** 112 % of control

**Q.** What about the T/C (dose: 8.0 mg/kg/injection, schedule: Q01DX010 (ip), vehicle: carboxymethylcellulose (CMC)) of the same molecule?
**A.** 104 % of control

**Q.** What does the source list for `ClCCc1cnc[nH]1`?
**A.** T/C (dose: 6.25 mg/kg/injection, schedule: Q04DX003 (ip), vehicle: water): 104 % of control; T/C (dose: 12.5 mg/kg/injection, schedule: Q04DX003 (ip), vehicle: water): 108 % of control; T/C (dose: 25.0 mg/kg/injection, schedule: Q04DX003 (ip), vehicle: water): 112 % of control; T/C (dose: 50.0 mg/kg/injection, schedule: Q04DX003 (ip), vehicle: water): 105 % of control; T/C (dose: 100.0 mg/kg/injection, schedule: Q04DX003 (ip), vehicle: water): 98 % of control

**Q.** `Nc1nc2c(ncn2C2OC(CO)C(O)C2O)c(=O)[nH]1` (stereo not drawn) was tested. Which T/C [3] did it give?
**A.** 157 % of control

**Q.** What does the source list for `Cc1nc(Cl)c(C#N)c(C)c1Cl`?
**A.** T/C (dose: 50.0 mg/kg/injection, schedule: Q01DX005 (ip), vehicle: saline with Tween-80): 97 % of control; T/C (dose: 100.0 mg/kg/injection, schedule: Q01DX005 (ip), vehicle: saline with Tween-80): 92 % of control; T/C (dose: 200.0 mg/kg/injection, schedule: Q01DX005 (ip), vehicle: saline with Tween-80): 94 % of control

**Q.** For `Cc1cc(O)c(O)c(C(C)(C)CC(C)(C)C)c1`, which T/C (dose: 100.0 mg/kg/injection, schedule: Q04DX003 (ip), vehicle: saline + alcohol) is on record?
**A.** 95 % of control

**Q.** And the T/C (dose: 200.0 mg/kg/injection, schedule: Q04DX003 (ip), vehicle: saline + alcohol)?
**A.** 104 % of control

**Q.** What about the T/C (dose: 400.0 mg/kg/injection, schedule: Q04DX003 (ip), vehicle: saline + alcohol) of the same molecule?
**A.** 100 % of control

**Q.** Which results are given for `COc1cccc2c1C(=O)c1c(O)c3c(c(O)c1C2=O)C[C@@](O)(C(=O)COC(=O)c1cccnc1)C[C@@H]3OC1CC(N)C(O)C(C)O1` (stereo partly drawn)?
**A.** T/C (dose: 1.32 mg/kg/injection, schedule: Q01DX009 (ip), vehicle: saline): 195 % of control; T/C [7]: 237 % of control

**Q.** How did the T/C [5] turn out when `COC(OC)C1=C(Cl)C(Cl)=C(Cl)/C1=N\Nc1ccccc1` was run?
**A.** 109 % of control

**Q.** What about the T/C [6] of the same molecule?
**A.** 86 % of control
